Experimental data as given in ChEMBL document CHEMBL5579837, “Dual 5-HT6/SERT ligands for mitigating neuropsychiatric symptoms of dementia exerting neuroprotection against amyloid-β toxicity, memory preservation, and antidepressant-like properties” (Eur J Med Chem, 2024).
Converted amounts (≈) assume the structure as drawn.

Legend:
[1] = molecular target: Voltage-gated inwardly rectifying potassium channel KCNH2 (Homo sapiens, UniProt Q12809); experiment: Inhibition of hERG expressed in CHO cells measured for 30 mins by electrophysiological automated patch clamp assay; assay type: toxicity, cell-based
Voltage-gated inwardly rectifying potassium channel KCNH2, sequence (Q12809 whole entry): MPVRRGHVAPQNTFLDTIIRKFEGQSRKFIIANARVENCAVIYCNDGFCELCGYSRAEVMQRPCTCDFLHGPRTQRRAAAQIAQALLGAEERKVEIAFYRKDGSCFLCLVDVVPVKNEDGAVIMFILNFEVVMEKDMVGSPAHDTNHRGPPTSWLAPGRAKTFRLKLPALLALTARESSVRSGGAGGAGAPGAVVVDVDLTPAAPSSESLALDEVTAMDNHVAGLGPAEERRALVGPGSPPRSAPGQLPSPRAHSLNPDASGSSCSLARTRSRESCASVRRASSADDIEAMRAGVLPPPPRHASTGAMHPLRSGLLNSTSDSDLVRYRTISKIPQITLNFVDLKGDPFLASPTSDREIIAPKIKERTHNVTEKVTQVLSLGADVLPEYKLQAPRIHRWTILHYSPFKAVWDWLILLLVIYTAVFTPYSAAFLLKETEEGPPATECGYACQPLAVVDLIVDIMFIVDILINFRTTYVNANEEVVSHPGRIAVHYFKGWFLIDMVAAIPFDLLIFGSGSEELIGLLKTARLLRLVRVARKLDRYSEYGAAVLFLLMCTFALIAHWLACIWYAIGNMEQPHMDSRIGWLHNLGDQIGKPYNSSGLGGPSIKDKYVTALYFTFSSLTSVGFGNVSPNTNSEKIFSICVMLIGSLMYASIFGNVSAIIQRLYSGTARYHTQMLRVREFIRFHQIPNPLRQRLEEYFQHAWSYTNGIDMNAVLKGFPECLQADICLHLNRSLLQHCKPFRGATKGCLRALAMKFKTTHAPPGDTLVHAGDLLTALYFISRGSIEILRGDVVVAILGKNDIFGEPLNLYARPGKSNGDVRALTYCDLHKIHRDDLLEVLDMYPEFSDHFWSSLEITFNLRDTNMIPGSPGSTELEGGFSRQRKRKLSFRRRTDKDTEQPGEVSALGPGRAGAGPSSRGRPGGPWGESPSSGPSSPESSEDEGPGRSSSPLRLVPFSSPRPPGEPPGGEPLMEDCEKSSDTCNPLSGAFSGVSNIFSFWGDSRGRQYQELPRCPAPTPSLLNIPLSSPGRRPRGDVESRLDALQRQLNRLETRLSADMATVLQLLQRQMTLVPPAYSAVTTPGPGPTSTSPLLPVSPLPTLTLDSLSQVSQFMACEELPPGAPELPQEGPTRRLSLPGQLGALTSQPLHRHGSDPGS

[2] = molecular target: 5-hydroxytryptamine receptor 6 (Homo sapiens, UniProt P50406)
5-hydroxytryptamine receptor 6, sequence (P50406 whole entry): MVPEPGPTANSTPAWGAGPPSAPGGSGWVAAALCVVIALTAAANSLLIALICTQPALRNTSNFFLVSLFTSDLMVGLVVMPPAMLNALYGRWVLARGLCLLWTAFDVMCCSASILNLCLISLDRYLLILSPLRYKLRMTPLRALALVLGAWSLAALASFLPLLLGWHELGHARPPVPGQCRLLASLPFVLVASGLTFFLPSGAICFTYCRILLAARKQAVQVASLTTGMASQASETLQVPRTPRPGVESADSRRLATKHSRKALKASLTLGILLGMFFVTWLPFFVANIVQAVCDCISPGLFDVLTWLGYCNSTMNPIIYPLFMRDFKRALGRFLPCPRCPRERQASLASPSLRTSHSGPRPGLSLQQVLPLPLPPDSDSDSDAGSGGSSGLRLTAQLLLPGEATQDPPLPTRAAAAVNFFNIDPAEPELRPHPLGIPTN
Description: Displacement of [3H]-LSD from human 5-HT6 receptor extracted from CHO-K1 cell membrane assessed as inhibition constant incubated for 60 mins by microbeta2 scintillation counter analysis

in vitro [3] = settings: rat, liver microsomes
in vitro [4] = settings: PAMPA
Description: Permeability of compound by PAMPA based LC-MS analysis

in vitro [5] = settings: rat, liver microsomes; remark: listed apart in the source
physchem = settings: PBS, pH 7.4
in vitro [6] = settings: mouse, HT-22 cells
Description: Neurotoxicity in mouse HT-22 cells incubated for 24 hrs by PrestoBlue reagent based assay

in vitro [7] = settings: human, HepG2 cells
Description: Hepatotoxicity in human HepG2 cells incubated for 24 hrs by PrestoBlue reagent based assay

Compound | IC50 [1] | other results
O=c1[nH]c2c(N3CCN(CCc4c[nH]c5ccc(F)cc45)CC3)cccc2n1Cc1ccccc1 | 3900 nM | Ki [2]: 116 nM
Cc1c(OCc2ccccc2)cccc1N1CCN(CCCCc2c[nH]c3ccc(C#N)cc23)CC1 | 4900 nM | 
O=S(=O)(c1ccccc1)n1ccc2c(N3CCN(CCCc4c[nH]c5ccc(F)cc45)CC3)cccc21 | 2900 nM | 
Cc1c(OCc2ccccc2)cccc1N1CCN(CCCc2c[nH]c3ccc(Cl)cc23)CC1 | 13600 nM | 
N#Cc1ccc2[nH]cc(CCCCN3CCC(c4cccc5c(S(=O)(=O)c6ccccc6)c[nH]c45)CC3)c2c1 | 4600 nM | 
Cc1c(OCc2ccccc2)cccc1N1CCN(CCCc2c[nH]c3ccc(F)cc23)CC1 | 3300 nM | 
Cc1c(OCc2ccccc2)cccc1N1CCN(CCCc2c[nH]c3ccc(C#N)cc23)CC1 | 1100 nM | 
O=c1[nH]c2c(N3CCN(CCCc4c[nH]c5ccc(F)cc45)CC3)cccc2n1Cc1ccccc1 | 2500 nM | 
O=S(=O)(c1ccccc1)n1ccc2c(N3CCN(CCCc4c[nH]c5ccc(Cl)cc45)CC3)cccc21 | 700 nM | 
O=S(=O)(c1ccccc1)c1c[nH]c2c(C3CCN(CCc4c[nH]c5ccc(Cl)cc45)CC3)cccc12 | 7000 nM | 
Cc1c(OCc2ccccc2)cccc1N1CCN(CCc2c[nH]c3ccc(Cl)cc23)CC1 | 6600 nM | Ki [2]: 142 nM
N#Cc1ccc2[nH]cc(CCCN3CCN(c4cccc5c4ccn5S(=O)(=O)c4ccccc4)CC3)c2c1 | 1700 nM | 
O=c1[nH]c2c(N3CCN(CCc4c[nH]c5ccc(Cl)cc45)CC3)cccc2n1Cc1ccccc1 | 4000 nM | half-life (in vitro [3]): > 1 h; Ki [2]: 8 nM; Papp (in vitro [4]): 2.75 ×10⁻⁶ cm/s; microsomal CLint (in vitro [5]): < 116 µL/min/mg; solubility at 24 h (physchem): 23.4 µM (≈ 11.4 µg/mL); IC50 at 24 h (in vitro [6]): 47000 nM; IC50 at 24 h (in vitro [7]): 23000 nM
N#Cc1ccc2[nH]cc(CCCCN3CCN(c4cccc5c4ccn5S(=O)(=O)c4ccccc4)CC3)c2c1 | 1600 nM | 
N#Cc1ccc2[nH]cc(CCN3CCC(c4cccc5c(S(=O)(=O)c6ccccc6)c[nH]c45)CC3)c2c1 | 1100 nM | 
N#Cc1ccc2[nH]cc(CCN3CCN(c4cccc5c4[nH]c(=O)n5Cc4ccccc4)CC3)c2c1 | 1700 nM | 
Cc1c(OCc2ccccc2)cccc1N1CCN(CCc2c[nH]c3ccc(F)cc23)CC1 | 2800 nM | 
N#Cc1ccc2[nH]cc(CCN3CCN(c4cccc5c4ccn5S(=O)(=O)c4ccccc4)CC3)c2c1 | 8900 nM | 
O=S(=O)(c1ccccc1)n1ccc2c(N3CCN(CCc4c[nH]c5ccc(F)cc45)CC3)cccc21 | 1300 nM | 
O=c1[nH]c2c(N3CCN(CCCc4c[nH]c5ccc(Cl)cc45)CC3)cccc2n1Cc1ccccc1 | 2500 nM | 
N#Cc1ccc2[nH]cc(CCCN3CCC(c4cccc5c(S(=O)(=O)c6ccccc6)c[nH]c45)CC3)c2c1 | 28100 nM | 
O=S(=O)(c1ccccc1)c1c[nH]c2c(C3CCN(CCCc4c[nH]c5ccc(F)cc45)CC3)cccc12 | 5000 nM | 
O=S(=O)(c1ccccc1)c1c[nH]c2c(C3CCN(CCCc4c[nH]c5ccc(Cl)cc45)CC3)cccc12 | 9500 nM | 
O=S(=O)(c1ccccc1)n1ccc2c(N3CCN(CCc4c[nH]c5ccc(Cl)cc45)CC3)cccc21 | 21300 nM | Ki [2]: 19 nM
N#Cc1ccc2[nH]cc(CCCN3CCN(c4cccc5c4[nH]c(=O)n5Cc4ccccc4)CC3)c2c1 | 1200 nM | 
N#Cc1ccc2[nH]cc(CCCCN3CCN(c4cccc5c4[nH]c(=O)n5Cc4ccccc4)CC3)c2c1 | 1100 nM | 
Cc1c(OCc2ccccc2)cccc1N1CCN(CCc2c[nH]c3ccc(C#N)cc23)CC1 | 3600 nM | 
O=S(=O)(c1ccccc1)c1c[nH]c2c(C3CCN(CCc4c[nH]c5ccc(F)cc45)CC3)cccc12 | 29300 nM | Ki [2]: 25 nM
